Laboratory results taken from PMC13224100, “Esterase-Responsive Mitochondria-Targeted Hydropersulfide Donors Mitigate Doxorubicin Cardiotoxicity While Preserving Anticancer Activity” (Angewandte Chemie (International ed. in English), 2025).
“And” between values parts separate entries of the source, which are not always exact repeats. Equal values may be shown once.

Key:
[1] = system: porcine liver esterase (PLE); experiment: Esterase-mediated RSSH release kinetics with HPE-IAM trapping (UPLC-MS); type: biochemical; details: precursor 25 μM, PLE 1 U mL^−1, HPE-IAM 250 μM, ammonium bicarbonate pH 7.4, DTPA, 37 °C; for half-life at 25 µM: pig, porcine liver esterase, read-out: t1/2 (min) Precursor consumption
Method: We then assessed esterase-mediated activation of AST-2 by incubating it with porcine liver esterase (PLE) in the presence of β-(4-hydroxyphenyl)ethyl iodoacetamide (HPE-IAM, 10 equiv), a trapping agent for RSSH.[39] We anticipated that PLE-catalyzed hydrolysis would release RSSH, which would subsequently be trapped by HPE-IAM to generate RSS-HPE-AM (Figure 1a). […] In addition, a minor amount of dialkyl trisulfide formation is observed (Figures 1b and S5), which we attribute to the reaction of the released RSSH with the precursor AST-2.
Figure 1. a) Schematic of esterase-mediated RSSH release from AST-2 in the presence of the trapping agent HPE-IAM. b) Representative UPLC-MS traces showing time-dependent conversion of AST-2 (25 μM) to RSS-HPE-AM upon treatment with porcine liver esterase (1 U mL^−1) and HPE-IAM (250 μM) in 100 mM ammonium bicarbonate buffer (pH 7.4) containing the metal chelator diethylenetriaminepentaacetic acid (DTPA) (100 μM) at 37 °C. Aliquots were quenched with formic acid and analyzed by UPLC-MS. […] Rate constants and half-lives are reported as mean ± SD (n = 3). Curves represent best fits to single-exponential functions.
Figure 2. a) Reaction scheme showing esterase-triggered RSSH release from APT-1 via a two-step activation involving deacetylation and intramolecular cyclization. b) Representative UPLC-MS traces showing the time-dependent conversion of APT-1 (25 μM) to intermediate 1 and subsequent formation of RSS-HPE-AM in the presence of PLE (1 U mL^−1) and HPE-IAM (250 μM) at 37 °C. Asterisk indicates a minor impurity in the blank control. […] Rate constants and half-lives are reported as mean ± SD (n = 3). Curves represent best fits to single exponential functions as described in the text.
B. Kinetics of RSSH Generation.
Kinetics of RSSH generation were conducted as previously described.[5] Stock solutions of RSSH […]
precursor (10 mM in DMSO), HPE-IAM (100mM in DMSO), and porcine liver esterase (PLE, 2000 U/mL in ammonium bicarbonate buffer) were freshly prepared. RSSH precursors (25 μM) were […]
then immediately incubated with HPE-IAM (250 μM) and PLE (1 U/mL, from Sigma-Aldrich, […]
E3019-20KU, ≥ 15 U/mg protein) in ammonium bicarbonate buffer (100 mM, pH 7.4) containing diethylenetriaminepentaacetic acid (DTPA, 100 μM) at 37 °C. At the indicated time points, 500 μL […]
aliquots were withdrawn, quenched with concentrated formic acid (5 μL, […]), and […]
ultracentrifuged at 12,500 rpm for 5 min. The resulting supernatants were diluted with acetonitrile […]
(200 μL supernatant + 300 μL of acetonitrile) and analyzed by UPLC–MS using a Waters Acquity […]
(MSe, 10 scans/s). Chromatographic separation was performed on a C18 reverse-phase column […]
(Waters Acquity BEH C18, 2.1 × 50 mm, 1.7 μm) at 4 °C, with a flow rate of 0.3 mL/min and the […]
following gradient (v/v; water containing 0.1% formic acid as solvent A, acetonitrile as solvent B):
B; 8.5–10 min, return to 100% A. The injection volume was 5 μL. Mass spectral data were […]
processed using MassLynx 4.1, and extracted ion chromatograms (EICs) corresponding to the […]
exact masses of the RSSH precursor, intermediate, and the trapped product (RSS–HPE-AM) […]
were integrated to quantify substrate consumption and product formation. Kinetic data were fitted […]
to a single exponential curve using Origin. All experiments were performed in triplicate (n = 3), […]
and results are reported as mean ± standard deviation (SD).
HRMS Data for Compounds Formed during RSSH Generation from AST-2 […]
Figure S2. HRMS of the peak eluting at 5.6 min corresponding to AST-2.
Esterase-mediated hydrolysis of AST-2-TPP monitored by UPLC-MS […]
Figure S11. (A) Representative UPLC-MS traces showing esterase-mediated hydrolysis of AST-2-TPP (25 […]
μM) in the presence of HPE-IAM (250 μM) in ammonium bicarbonate buffer (pH 7.4, 100 mM) containing […]
the metal chelator DTPA (100 μM) at 37 °C. […]

[2] = system: H9c2 cells; experiment: Mitochondrial membrane potential (TMRM) under DOX; type: cell-based; details: donor 25 μM, 4 h pretreatment, DOX 5 μM 24 h
Method: Figure 6. a) Basal sulfane sulfur (SS) levels in H9c2 cardiomyocyte, MDA-MB-468, MCF-7, and HepG2 cell lines as detected by SSP4 fluorescence. b) Representative images and c) basal levels of mitochondrial membrane potential (MMP) in H9c2 and cancer cells (MDA-MB-468, MCF-7, and HepG2). d) Impact of APT-1 (25 μM) or APT-1-TPP (25 μM) on MMP in DOX (5 μM)-treated (d) H9c2 and e) HepG2 cells. Impact of APT-1 (25 μM) and APT-1-TPP (25 μM) on ATP levels in DOX (5 μM)-treated f) H9c2 and g) HepG2 cells. Results are expressed as mean ± SEM, n = 3–6; *P < 0.05, **P < 0.01, ***P < 0.001, ****P < 0.0001. Significances in (a) and (c) are presented with respect to H9c2 cells.
We then examined how RSSH donors influence MMP during DOX exposure. As expected, DOX alone induced mitochondrial depolarization in H9c2 cells, reducing MMP to ca. 50% of control (Figure 6d). […] To complement these observations, we quantified intracellular ATP levels as a functional readout of mitochondrial activity. […]
Mitochondrial Membrane Potential Measurements
Mitochondrial membrane potential was measured using Image-iT™ TMRM Reagent (Cat#I34361, Invitrogen, USA) according to the manufacturer's protocols. […]
The cells were incubated for an additional 24 h. After completion of treatment, cells were washed with a warm clear DMEM medium (with 10% FBS) and incubated in culture media containing TMRM (working solution 100 nM) for 30 min at 37 °C. Cells were then washed with a warm clear FBS-free DMEM medium (3 times) before imaging. Images were obtained with Zeiss LSM 800 with AiryScan Confocal (λex = 548 nm, λem = 573 nm). During each experiment, 6 field images were obtained for each experimental group. Images were analyzed using Image J software, and all cells in each image were selected for fluorescence intensity measurement (cell-free space was also measured as blank). H9c2 signal intensity was set to 100% and signal intensity for all the other cell lines was shown as a percentage of that of H9c2.
The experiments were independently repeated three times (n = 3 biological replicates). Data are […]
Figure S24. Representative TMRM images for mitochondrial membrane potential (MMP) in H9c2 and HepG2 cells with APT-1 and APT-1-TPP treatment under DOX stress. Ctl = vehicle (medium with 0.01% […]
(1 picture or pasted object on this page, not shown here)

half-life at 25 µM [1] [min]	first-order rate constant k (k1) of precursor consumption / deacetylation [1]	first-order rate constant k (k2) of RSS-HPE-AM formation (RSSH release) [1]	SMILES	effect on DOX-induced loss of MMP [2]
17.1 ± 0.4	0.0406 ± 0.0010 min⁻¹	0.0067 ± 0.0006 min⁻¹	COC(=O)C(NC(C)=O)C(C)(C)SSC(=O)N(C)CCOC(C)=O (centres unmarked) [APT-1]	preserved MMP
50.1 ± 1.8	0.0139 ± 0.0005 min⁻¹	0.0144 ± 0.0006 min⁻¹	COC(=O)SSC(C)(C)C(NC(C)=O)C(=O)OC (centres unmarked) [AST-2]	

SMILES	half-life at 25 µM [1] [min]	first-order rate constant k (k1) of precursor consumption / deacetylation [1]	first-order rate constant k (k2) of RSS-HPE-AM formation (RSSH release) [1]	effect on DOX-induced loss of MMP [2]
COC(=O)SSC(C)(C)C(NC(C)=O)C(=O)N(C)CCC[P+](c1ccccc1)(c1ccccc1)c1ccccc1 (centres unmarked) [AST-2-TPP]	20.7 ± 0.6	0.0335 ± 0.0010 min⁻¹	0.03467 ± 0.0028 min⁻¹ and 0.0347 ± 0.0028 min⁻¹	
CC(=O)NC(C(=O)N(C)CCC[P+](c1ccccc1)(c1ccccc1)c1ccccc1)C(C)(C)SSC(=O)N(C)CCOC(C)=O (centres unmarked) [APT-1-TPP]	5.2 ± 0.2	0.1338 ± 0.0049 min⁻¹ and 0.134 ± 0.005 min⁻¹	0.0056 ± 0.0004 min⁻¹	conferred protection, though to a slightly lesser extent
